Patent US10591478B2, “Methods for molecular classification of fatty liver by high-throughput protein post-translational modifications” (ROSEMAN UNIVERSITY OF HEALTH SCIENCES, priority 2015, dated 2020)
“Also recorded” adds a separate entry of the source.

Assays:
FOXO1 = assay: cIEF immunoassay of FOXO1 pI distribution in HepG2 cells; format: cell-based; settings: 48 hours
Experimental: A NanoPro 1000 cIEF system (Protein Simple, Santa Clara, Calif., USA) was employed for profiling protein PTM. Samples of 400 nl volume were separated by isoelectric focusing using the 96-capillary system, followed by immobilization of the proteins onto the inner capillary walls. Primary and secondary antibodies (Tables 2 and FIG. 6) were introduced into the capillaries, followed by chemiluminescence detection reagents. The incubation times were 110 and 55 min for primary and secondary antibodies, respectively. The separation time was 50 minutes at […]. All samples were loaded in triplicate into capillaries to evaluate the consistency of capillary-to-capillary measurement. Each experiment was performed in triplicate to ensure repeatability. A minimum of nine cIEF measurements were done for each protein per animal group. […]
HepG2 cells were maintained in DMEM media with 25 mM glucose and 10% fetal calf serum. […] Total HepG2 cell extracts were collected and evaluated with 1D Western blots using antibodies against O-GlcNAc.
HepG2 cells were transiently transfected with an expression vector that expressed FOXO1 with a Myc-DDK tag (Cat. No. RC200477, Origene, Rockville, Md.). […] HepG2 cells were treated for 48 hours with 500 μM glucosamine Total HepG2 cell extracts were collected and evaluated with 1D and 2D Western blots using antibodies against FLAG tag. […]

HepG2 cells = assay: 1D Western blot of HepG2 total cell extracts with antibodies against O-GlcNAc; format: cell-based; settings: HepG2, 100 μM PUGNAc, 48 hours
Experimental: HepG2 cells were maintained in DMEM media with 25 mM glucose and 10% fetal calf serum. HepG2 cells were treated for 48 hours with 100 μM PUGNAc (Cat. No. A7229, Sigma, St. Louis, Mo.). Total HepG2 cell extracts were collected and evaluated with 1D Western blots using antibodies against O-GlcNAc.
HepG2 cells were first lysed with M-Per lysis buffer (Pierce, Rockford, Ill., USA) in the presence of protease and phosphatase inhibitors. For cIEF immunoassays, total cell lysates were prepared in Premix G2 pH 5-8 separation gradient containing pI standards (ProteinSimple).
HepG2 total cell extracts were analyzed on 10% SDS-polyacrylamide gel. Secondary antibodies were purchased from LI-COR (Lincoln, Nebr., Cat. No. 92668070). Immunoblots were detected with the LI-COR's Odyssey CLx imaging system.

Akt = assay: cIEF immunoassay phosphorylation profile of Akt in liver tissues; format: in vivo, mouse; settings: C57BL/6J+F liver vs C57BL/6J
Experimental: (§1) C57BL/6 J and UPase1-TG mice were fed a lean diet that provides 4.6 kcal/g (22% by calorific value from fat, 23% from protein, and 55% from carbohydrates; PicoLab Mouse Diet, Catalog No 5058, LabDiet, Brentwood, Mo., USA). C57BL/6 J+LD mice were fed a lean diet for 16 weeks. C57BL/6 J+F mice were fed a lean diet supplemented with fenofibrate (400 mg/kg per day) for 5 days. C57BL/6 J+HFD mice were fed a high-fat diet that provides 5.24 kcal/g (60% from fat, 20% from protein, and 20% from carbohydrates) for 16 weeks (Catalog No D12492, Research Diets Inc, New Brunswick, N.J., USA). C57BL/6 J mice served as a control for C57BL/6 J+LD, UPase1-TG, and C57BL/6 J+F mice. On the other hand, C57BL/6 J+LD mice served as a control for C57BL/6 J+HFD mice. All animal studies were performed in conformity with the Public Health Service Policy on Humane Care and Use of Laboratory Animals and with the approval of the Animal Care and Use Committees at Nevada Cancer Institute, Desert Research Institute, and Touro University Nevada.
(§2) Approximately 500 mg of frozen liver tissues was added to 300 μl of RIPA buffer (Cat. No. 8990, Life Technologies, Grand Island, N.Y. 14702) containing proteinase and phosphatase inhibitors and homogenized twice at 6 seconds duration. […]

PFK1 = assay: cIEF immunoassay PTM profile of PFK1 in liver tissues; format: in vivo, mouse; settings: C57BL/6J+F liver vs control C57BL/6J
Experimental: as §1, §2

ERK1/2 = assay: cIEF immunoassay phosphorylation profile of ERK1/2 in liver tissues; format: in vivo, mouse; settings: C57BL/6J+F liver vs control C57BL/6J
Experimental: as §1, §2

[1] = system: liver tissues (hepatic steatosis); assay: Assessment of hepatic steatosis with CARS microscopy and Oil Red O histology; format: in vivo, mouse; settings: C57BL/6J+F mice, fenofibrate diet (400 mg/kg per day) for 5 days
Experimental: as §1

HMGCS2 = assay: cIEF immunoassay PTM profile of HMGCS2 in liver tissues; format: in vivo, mouse; settings: C57BL/6J+F liver vs C57BL/6J
Experimental: as §1, §2

LCAT = assay: cIEF immunoassay PTM profile of LCAT in liver tissues; format: in vivo, mouse
Experimental: as §1, §2

ChREBP = assay: cIEF immunoassay PTM profile of ChREBP in liver tissues; format: in vivo, mouse; settings: C57BL/6J+F liver vs control C57BL/6J
Experimental: as §1, §2

LCAD = assay: cIEF immunoassay PTM profile of LCAD in liver tissues; format: in vivo, mouse; settings: C57BL/6J+F liver vs control C57BL/6J
Experimental: as §1, §2

FLAG-tagged FOXO1 = assay: 2D Western blot of FLAG-tagged FOXO1 in HepG2 cells; format: cell-based; settings: HepG2 transfected with FLAG-tagged FOXO1, 500 μM glucosamine, 48 hours
Experimental: HepG2 cells were transiently transfected with an expression vector that expressed FOXO1 with a Myc-DDK tag (Cat. No. RC200477, Origene, Rockville, Md.). Transfection reagent was purchased from Life Technologies (Lipofectamine 2000, Cat. No. 11668-019, Grand Island, N.Y. 14702). HepG2 cells were treated for 48 hours with 500 μM glucosamine Total HepG2 cell extracts were collected and evaluated with 1D and 2D Western blots using antibodies against FLAG tag.
2D Western blots of HepG2 total protein extracts were performed by Kendrick Laboratories (Madison, Wis.). Total protein extracts was diluted with 100 ul of SDS Boiling Buffer and microdialyzed overnight using 6-8,000 MWCO membrane at 4° C. Samples were then lyophilized and redissolved to 3.33 mg/ml in diluted SDS boiling Buffer:Urea Sample Buffer before loading. A total of 500 μg of total protein extracts or 150 μl was loaded for isoeletric focusing. Carrier ampholine method of isoelectric focusing was carried out in a glass tube of inner diameter 3.3 mm using 2.0% pH 4-8 mix Servalytes (Serva, Heidelberg, Germany) for 20,000 volt-hrs. After equilibration for 10 minutes in 10% glycerol, 50 mM dithiothreitol, 2.3% SDS and 0.0625 M tris, pH 6.8, each tube gel was sealed to the top of a stacking gel that overlaid a 10% acrylamide slab gel. SDS slab gel electrophoresis was carried out for about 5 hours at 25 mA/gel. […]

CC(=O)N[C@H]1/C(=N/OC(=O)Nc2ccccc2)O[C@H](CO)[C@@H](O)[C@@H]1O [PUGNAc]
new FOXO1 peak, pI (FOXO1; HepG2, 100 μM PUGNAc): 8.25 pI
overall protein O-linked glycosylation profile of HepG2 total cell extract (HepG2 cells): increased

CC(C)OC(=O)C(C)(C)Oc1ccc(C(=O)c2ccc(Cl)cc2)cc1 [fenofibrate]
Akt phosphorylation level, lower compared to control (Akt): approximately 30%
reduction of phosphorylated PFK-1 isoform, areas under the curve (PFK1): ~10 folds
increase of ERK1/2 phosphorylated isoforms, areas under the curve (ERK1/2): ~30%
Fatty liver classification [1]: severe microvesicular steatosis
PTM increase for HMGCS2, areas under the curve from pI 5.7 to 6.4 (HMGCS2): 2 folds
LCAT observed pI value (LCAT; C57BL/6J+F liver): 5.8 pI
glycosylated LCAT isoforms, folds lower (LCAT; C57BL/6J+F liver vs C57BL/6J): ~10 folds
reduction of phosphorylated ChREBP isoforms (ChREBP): 60%
glycosylated LCAD isoform, folds higher, areas under the curve (LCAD): 2 folds

N[C@H]1C(O)O[C@H](CO)[C@@H](O)[C@@H]1O (stereo partly shown) [glucosamine]
FOXO1 peaks in cIEF, pI (FOXO1; HepG2, 500 μM glucosamine): > 7.5 pI
FLAG-tagged FOXO1 pI on 2D Western blot (FLAG-tagged FOXO1): shift to FLAG-tagged FOXO1 toward basic pI values; also recorded: additional gel spot at a basic pI value
